From US10555954B2, “Hazardous agent injection system” (Antares Pharma, Inc., priority 2009, dated 2020)
“And” between values parts separate entries of the source, which are not always exact repeats. Equal values may be shown once. “Also recorded” adds a separate entry of the source. Read-outs that look alike come from different tables or passages of the source.

Experiments:
[1] = test system: patients with rheumatoid arthritis; conditions: 15 mg per week, cited from earlier work
[2] = test system: patients with active rheumatoid arthritis; conditions: cited from earlier work; for patients achieving ACR20: 16 weeks, starting dose 15 mg per week; for time to achieve an ACR20 response: subgroup n=98; for ACR20 responders: subgroup ≥1 year since diagnosis with prior DMARDs or steroids (n=98)
[3] = cited from earlier work
[4] = pediatric patients with juvenile rheumatoid arthritis, cited from earlier work
[5] = test system: rheumatoid arthritis patients; conditions: cited from earlier work
[6] = Pharmacokinetics of methotrexate in plasma after subcutaneous injection with autoinjector or needle/syringe; conditions: for AUC(0-inf) / AUC(0-τ) / Tmax / T½ / AUC: plasma; for AUC(0-t): individual animals; for AUC: AUC(0-τ)
[7] = test system: patients with rheumatoid arthritis; conditions: after switching from intramuscular to oral; cited from earlier work
[8] = Autoinjector, Female, 12.5 mg SC, animals S5196028/S5195684/S5195757
[9] = Autoinjector, Male, 12.5 mg SC, animals S5196273/S5196559/S5196206
[10] = Syringe, Female, 12.5 mg SC, animals S5196028/S5195684/S5195757
[11] = Syringe, Male, 12.5 mg SC, animals S5196273/S5196559/S5196206

CN(Cc1cnc2nc(N)nc(N)c2n1)c1ccc(C(=O)N[C@@H](CCC(=O)O)C(=O)O)cc1 [Methotrexate, L-(+)-N-[p-[[(2,4-Diamino-6-pteridinyl)methyl]methylamino]-benzoyl]glutamic acid]
average DAS28 ([1]; after switch from oral to intramuscular administration): 5.2 | average DAS28 ([1]; before switch from oral to intramuscular administration): 5.6 | patients achieving ACR20 ([2]; oral): 77% | time to achieve an ACR20 response ([2]; oral): 6 weeks | ACR20 responders ([2]; oral): 63% | further ACR20 non-responders with positive ACR20 response ([2]; subcutaneous dosage increased from 15 mg to 20 mg): 23% | patients achieving ACR20 ([2]; subcutaneous): 85% | time to achieve an ACR20 response ([2]; subcutaneous): 4 weeks | ACR20 responders ([2]; subcutaneous): 89% | ACR20 non-responders with positive ACR20 response after switch ([2]; switched from 15 mg oral to 15 mg subcutaneous at 16 weeks): 30% | peak serum concentrations and bioavailability, intramuscular versus subcutaneous ([3]; Brooks et al., 12.5 mg to 25 mg per week): similar | fall of total absorption after oral administration, maintenance versus starting dosage ([3]; Hamilton et al., start 7.5 mg per week, maintenance average 17 mg per week, 21 rheumatoid arthritis patients): about 13.5% | average mean serum concentration ([4]; about 1 hour): about 0.59 μM | average mean serum concentration ([4]; about 2 hours): about 0.44 μM | average mean serum concentration ([4]; about 3 hours): about 0.29 μM | patients judged to have moderate or marked improvement ([5]; 10 mg to 15 mg intramuscular once a week, 78 patients): Eighty-two | patients who deteriorated after switching to oral methotrexate ([5]; improved after switching back to intramuscular): 10 of 48 patients | difference in exposure / PK parameters between males and females ([6]; 12.5 mg SC, both devices): no marked difference; also recorded: no marked sex-related differences | exposure with autoinjector compared to needle/syringe ([6]; 12.5 mg SC, male and female minipigs): very similar; also recorded: comparable | AUC(0-inf) [6, 8]: 1859 ng·mL·h | AUC(0-τ) [6, 8]: 1857 ng·mL·h | Tmax [6, 8]: 15 min | T½ [6, 8]: 237 min and 196 min | AUC(0-t) ([6]; Autoinjector, Female, Day 8): 2498 ng·h/mL and 1857 ng·h/mL | T½ ([6]; Autoinjector, Male, 12.5 mg SC, Mean): 115 min | Tmax ([6]; Autoinjector, Male, 12.5 mg SC, Median): 15 min | AUC(0-inf) [6, 9]: 1903 ng·mL·h and 1407 ng·mL·h | Tmax [6, 9]: 15 min | T½ [6, 9]: 120 min | AUC(0-t) ([6]; Needle/Syringe, Female, Day 1): 2378 ng·h/mL and 1831 ng·h/mL | Tmax ([6]; Syringe, Female, 12.5 mg SC, Median): 15 min | AUC(0-inf) [6, 10]: 2675 ng·mL·h and 1832 ng·mL·h | Tmax [6, 10]: 15 min | Tmax ([6]; Syringe, Male, 12.5 mg SC, Median): 15 min | T½ ([6]; Syringe, Male, 12.5 mg SC, animal S5196559): 115 min | AUC(0-τ) [6, 11]: 2464 ng·mL·h and 2016 ng·mL·h | Tmax [6, 11]: 15 min and 30 min | time at which maximal plasma concentrations were generally observed ([6]; both devices, first collection time point): 0.25 h | AUC(0-inf) ([6]; female, Gottingen, minipig, sc, 12.5 mg, AUC(0-inf), Autoinjector, 12.5 mg SC, Mean): 2510 ng·h/mL | AUC(0-inf) ([6]; female, Gottingen, minipig, sc, 12.5 mg, AUC(0-inf), Autoinjector, 12.5 mg SC, animals S5196028/S5195684/S5195757): 3170 ng·h/mL | AUC(0-inf) ([6]; female, Gottingen, minipig, sc, 12.5 mg, AUC(0-inf), Syringe, 12.5 mg SC, Mean): 2300 ng·h/mL | AUC(0-inf) ([6]; female, Gottingen, minipig, sc, 12.5 mg, AUC(0-inf), Syringe, 12.5 mg SC, animals S5196028/S5195684/S5195757): 2380 ng·h/mL | AUC ([6]; female, Gottingen, minipig, sc, 12.5 mg, Syringe, 12.5 mg SC, animals S5196028/S5195684/S5195757): 1830 ng·h/mL | AUC(0-inf) ([6]; male, Gottingen, minipig, sc, 12.5 mg, AUC(0-inf), Autoinjector, 12.5 mg SC, Mean): 1490 ng·h/mL | AUC(0-inf) ([6]; male, Gottingen, minipig, sc, 12.5 mg, AUC(0-inf), Autoinjector, 12.5 mg SC, animals S5196273/S5196559/S5196206): 1160 ng·h/mL | AUC(0-inf) ([6]; male, Gottingen, minipig, sc, 12.5 mg, AUC(0-inf), Syringe, 12.5 mg SC, animal S5196559): 2470 ng·h/mL | AUC ([6]; male, Gottingen, minipig, sc, 12.5 mg, Syringe, 12.5 mg SC, Mean): 1940 ng·h/mL | AUC ([6]; male, Gottingen, minipig, sc, 12.5 mg, Syringe, 12.5 mg SC, animals S5196273/S5196559/S5196206): 1320 ng·h/mL | patients reporting nausea [7]: 48%
